Several values for one entry are separate records, joined by “and”; a condition that tells them apart may be missing. Equal values may be shown once.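 Cultured in 96-well plates, cells were exposed to test compound for 48 hours across five concentrations. Here, GI50 denotes the concentration required for 50% inhibition of growth. The concentration for full growth arrest is given as TGI.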
Legend:
Assay in all cases: inhibition of tumour cell growth, NCI panel, 48 h
HCT-116 colon = test system: HCT-116 colon
LOX IMVI melanoma = test system: LOX IMVI melanoma
MCF7 breast = test system: MCF7 breast
MDA-MB-435 = test system: MDA-MB-435
NCI-H522 lung = test system: NCI-H522 lung
NCI/ADR-RES ovarian = test system: NCI/ADR-RES ovarian
RPMI-8226 leukemia = test system: RPMI-8226 leukemia
SK-MEL-2 melanoma = test system: SK-MEL-2 melanoma
SK-MEL-28 melanoma = test system: SK-MEL-28 melanoma
SW-620 colon = test system: SW-620 colon

Compound	GI50 (HCT-116 colon)	TGI (HCT-116 colon)	GI50 (LOX IMVI melanoma)	TGI (LOX IMVI melanoma)	GI50 (MCF7 breast) [µM]	TGI (MCF7 breast)	GI50 (MDA-MB-435) [µM]	TGI (MDA-MB-435) [µM]	GI50 (NCI-H522 lung)	TGI (NCI-H522 lung)	GI50 (NCI/ADR-RES ovarian) [µM]	TGI (NCI/ADR-RES ovarian) [µM]	GI50 (RPMI-8226 leukemia) [µM]	TGI (RPMI-8226 leukemia)	GI50 (SK-MEL-2 melanoma)	TGI (SK-MEL-2 melanoma)	GI50 (SK-MEL-28 melanoma) [µM]	TGI (SK-MEL-28 melanoma)	GI50 (SW-620 colon)	TGI (SW-620 colon)
O=C(NCCN1CCOCC1)c1cc2c(Oc3ccc(NC(=O)C4(C(=O)Nc5ccc(F)cc5)CC4)cc3)ccnc2[nH]1	8.78 µM	> 100 µM	2.05 µM	39.6 µM	2.36	33.2 µM	3.22	23.3	7.69 µM	28.1 µM	22.9	> 100	9.45	42.2 µM	9.19 µM	22.9 µM	4.37	19.4 µM	15.3 µM	> 100 µM
OC[C@H]1C[C@](O)(c2ccccc2Cl)[C@@H](c2ccccc2Cl)O1	25.7 µM	68.6 µM	16.9 µM	34.3 µM	27	62.6 µM	16.3	33.3	13.4 µM	38.4 µM	29.4	> 100	21.7	58.2 µM			26.4	79.6 µM	30.1 µM	> 100 µM
COc1cccc(/C=C\C(=O)c2ccccc2)c1	2.66 µM	8.27 µM	2.42 µM	7.38 µM	2.57	18.6 µM	11.9	27.8	2.06 µM	4.62 µM	17.2	> 100	16.2	> 100 µM	18 µM	34.8 µM	4.31	15 µM	2.7 µM	7.31 µM
CCc1ccc([OH2+])c(C(=O)[O-])c1.CCc1ccc([OH2+])c(C(=O)[O-])c1.CCc1ccc([OH2+])c(C(=O)[O-])c1.CCc1ccc([OH2+])c(C(=O)[O-])c1.[Cu+2].[Cu+2]	> 100 µM	> 100 µM	> 100 µM	> 100 µM	35	> 100 µM	49.3	> 100	> 86 µM	> 100 µM	17.3	> 100	41.3	> 100 µM	> 91.3 µM	> 100 µM	> 100	> 100 µM	> 100 µM	> 100 µM
COc1cc2c(cc1O)CCN[C@@]21CS[C@H]2c3c(OC(C)=O)c(C)c4c(c3C(COC1=O)N1C2C2NC(Cc3cc(C)c(OC)c(O)c32)[C@@H]1O)OCO4 (stereo partly drawn)	4.5 ng/mL	11.9 µM and 4.86 µg/mL	4.5 ng/mL	1970 ng/mL		10.5 µM		< 0.01	4.5 ng/mL	< 10 nM and 0.0045 µg/mL		0.0369		> 100 µM and 6.4e-07 µg/mL	4.5 ng/mL	< 10 nM and 0.0045 µg/mL		< 10 nM and 3.1e-07 µg/mL and 0.0045 µg/mL	4.5 ng/mL	7.33 µM and 4.98 µg/mL
Cc1[nH]c2c(C)c3c([nH]c4ccc(Cl)cc43)c(C)c2c(=O)c1C		11.3 µM		15.7 µM		6.9 µM		> 53.5		12.9 µM		60.5		24.9 µM		> 100 µM		> 100 µM		> 100 µM
COC(=O)[C@]12CC[C@@H](C)[C@H](C)[C@@H]1C1=CC[C@@H]3[C@@]4(C)C[C@@H](OC(C)=O)[C@H](OC(C)=O)[C@@](C)(COC(C)=O)[C@@H]4[C@H](O)C[C@@]3(C)[C@]1(C)CC2	0.423 µM	> 100 µM	0.54 µM	> 100 µM	1.57	27.9 µM	1.86	> 100	1.92 µM	89 µM	3.16	> 100	1.04	> 100 µM	1.85 µM	> 100 µM	2.74	> 100 µM	0.892 µM	> 100 µM
Nc1nc(SCC#CCCl)c2[nH]cnc2n1	3.86 µM	15.2 µM	2.97 µM	11.8 µM	4.12	16.3 µM	3.81	18.6	1.47 µM	2.95 µM	6.16	30.4	6.86	48.8 µM	4.92 µM	23.3 µM	11.7	27.2 µM	4.1 µM	17.5 µM
COc1ccc2c(Cl)cc(NC(=S)Nc3ccccc3)nc2c1		49.1 µM		44 µM		> 100 µM		34.6		34.8 µM		54.1		59.9 µM		55 µM		97.9 µM		69.1 µM
O=C1c2ccccc2C(=O)c2c1ccc1c3ccccc3n(-c3ccccc3)c21		47.5 µM		30.4 µM		> 55.6 µM		26		32.4 µM		> 100		25.8 µM		46.8 µM		34.2 µM		48 µM
Oc1ccccc1/C=N\NC(=S)Nc1ccc(F)cc1	0.403 µM	> 100 µM	0.708 µM	> 79.7 µM	0.888	> 100 µM	0.404	> 96.6	2.16 µM	> 49.4 µM	0.443	> 37.8	1.34		5.96 µM	> 100 µM	2	> 100 µM	1.17 µM	> 100 µM
COC(=O)C(=O)C(C(=O)C(=O)Nc1cc(C)ccc1C)c1nc2ccccc2[nH]c1=O (stereo not drawn)		> 100 µM		> 100 µM		> 100 µM		> 100		> 100 µM		> 100		71.4 µM		> 100 µM		> 100 µM		> 100 µM
COc1oc(C2C/C(=C/C(C)=C/C(C)=C/C(C)=C/c3ccc([N+](=O)[O-])cc3)CO2)c(C)c(=O)c1C (stereo not drawn)		18.2 µM		23.4 µM		19 µM		42.4		15.5 µM		> 49.6		20.9 µM		> 75.8 µM		> 60.5 µM		> 100 µM
C=C1C(C)C2C(Cc3ccccc3)NC(=O)C23C(OC(C)=O)C=CC(C)(O)C(=O)C(C)C/C=C/C3C1O (stereo not drawn)	1.04 µM	> 500 µM			8.87	87 µM and 275 µM	2.32	> 414		27.3 µM and 36.4 µM	> 500	> 500	3.9	65.5 µM and > 500 µM		74.8 µM	22.2	57.7 µM and 153 µM	> 500 µM	> 500 µM

Source: PubChem BioAssay (NCI)
